Experimental data: EP0511845B1, “Pesticidal 1-aryl-5-(substituted alkylideneimino)-pyrazoles” (AVENTIS CROPSCIENCE S.A., priority 1991, dated 1992)

What was measured:
Assay type in all cases: in vivo
Heliothis virescens [1] = experiment: Tobacco budworm - contact evaluation (topical application); conditions: topical or contact tests; application dose of 63 µg/g body weight
Procedure: For tobacco budworm contact tests, a stock solution was prepared by dissolving the compound in acetone and then further diluted to provide the required serial dilution concentrations.
Tobacco budworm - contact evaluation: The following topical application method provides an assessment of contact toxicity of a compound to tobacco budworm larvae The test compound solution at sequential two-fold dilution concentrations from 10 down to 0.16 µg/µl was applied by a microinjector in repli cated 1 µl portions to the dorsum of approximately 20 mg tobacco budworm larvae. This is equivalent to applied doses of 500 down to 8 µg/g body weight. An acetone treated control, without any test compounds, as also applied. A treated control with a commercial technical compound, cypermethrin or thiodicarb, also in acetone was used as a standard. The treated larvae were placed, individually, in separate plastic petri dishes containing an untreated cotton leaf and a moist dental wick. The treated larvae were maintained at about 27°C and 50% relative humidity. The percent mortality was rated 1 and 4 days after treatment.

Spodoptera eridania [2] = experiment: Southern armyworm on cotton - systemic evaluation (soil drench); conditions: systemic via root uptake; for control of southern armyworm at thirteen days: plant not repeated, follows the cotton clause; for control of southern armyworm at six days on cotton: 20 ppm soil concentration dose (and subsequent dilutions)
Procedure: (§1) Cotton aphid and southern armyworm (on cotton) and greenbug and southern armyworm (on sorghum) - systemic evaluation: A stock solution or suspension was prepared to deliver 5 ml of a 20 ppm soil concentration dose (and subsequent dilutions) as a drench to 6 cm pots containing cotton and sorghum plants. The cotton plants were previously infested with cotton aphids about two days before treatment and greenbug one day before treatment. After holding the plants about three days, the plants were rated for aphid activity. Again at six days, the plants were rated for aphid activity and the cotton aphids and greenbugs were counted and mortality was assessed. Portions of the cotton and sorghum foliage were excised, placed in separate plastic containers, and infested with second instar larvae of southern armyworms. The potted plants were dipped in sulfotepp to kill the remaining aphids and returned to the greenhouse for regrowth. Thirteen days after treatment the remaining foliage was excised and fed to southern armyworm. Mortality was assessed six days after infestation.

Spodoptera eridania [3] = experiment: Southern armyworm on sorghum - systemic evaluation (soil drench); conditions: systemic via root uptake; for control of southern armyworm at thirteen days (sorghum): on sorghum; for control of southern armyworm after six days on sorghum: 20 ppm soil concentration dose (and subsequent dilutions)
Procedure: as §1

Aphis gossypii = experiment: Cotton aphid on cotton - systemic evaluation (soil drench); conditions: systemic via root uptake, soil drench at soil concentrations of the protocols (10.0 or 20 ppm)
Procedure: (§2) For southern root-knot nematod and systemic tests for southern armyworm, cotton aphid, tobacco budworm and greenbug, a stock solution or suspension was prepared by adding 15 mg of the test compound to 250 mg of dimethylformamide, 1250 mg of acetone and 3 mg of the emulsifier blend referenced above. Water was then added to provide a test compound concentration of 150 ppm. When necessary, sonication was provided to insure complete dispersion. Cotton aphid and tobacco budworm (on cotton) and greenbug and tobacco budworm (on sorghum) - systemic evaluation: A 7.0 ml aliquot of the 150 ppm nematode test solution was applied to deliver the equivalent of 10.0 ppm soil concentration dose as a drench to 6 cm pots containing cotton and sorghum plants. The cotton plants were previously infested with cotton aphids about two days before treatment and greenbug one day before treatment. After holding the plants about three days, the plants were rated for aphid activity. Again at six days, the plants were rated for aphid activity and the cotton aphids and greenbugs were counted and mortality was assessed. Portions of the cotton and sorghum foliage were excised, placed in separate plastic containers, and infested with second instar larvae of tobacco budworm. The potted plants were dipped in sulfotepp to kill the remaining aphids and returned to the greenhouse for regrowth. Thirteen days after treatment, the remaining foliage was excised and fed to tobacco budworms. Mortality was assessed six days after infestation. Cotton aphid and southern armyworm (on cotton) and greenbug and southern armyworm (on sorghum) - systemic evaluation: A stock solution or suspension was prepared to deliver 5 ml of a 20 ppm soil concentration dose (and subsequent dilutions) as a drench to 6 cm pots containing cotton and sorghum plants. The cotton plants were previously infested with cotton aphids about two days before treatment and greenbug one day before treatment. After holding the plants about three days, the plants were rated for aphid activity. Again at six days, the plants were rated for aphid activity and the cotton aphids and greenbugs were counted and mortality was assessed. Portions of the cotton and sorghum foliage were excised, placed in separate plastic containers, and infested with second instar larvae of southern armyworms. The potted plants were dipped in sulfotepp to kill the remaining aphids and returned to the greenhouse for regrowth. Thirteen days after treatment the remaining foliage was excised and fed to southern armyworm. Mortality was assessed six days after infestation.

Schizaphis graminum = experiment: Greenbug on sorghum - systemic evaluation (soil drench); conditions: systemic via root uptake, soil drench at soil concentrations of the protocols (10.0 or 20 ppm)
Procedure: as §2

Heliothis virescens [4] = experiment: Tobacco budworm on sorghum - systemic evaluation (soil drench); conditions: systemic via root uptake, 10.0 ppm soil concentration
Procedure: For southern root-knot nematod and systemic tests for southern armyworm, cotton aphid, tobacco budworm and greenbug, a stock solution or suspension was prepared by adding 15 mg of the test compound to 250 mg of dimethylformamide, 1250 mg of acetone and 3 mg of the emulsifier blend referenced above. Water was then added to provide a test compound concentration of 150 ppm. When necessary, sonication was provided to insure complete dispersion. Cotton aphid and tobacco budworm (on cotton) and greenbug and tobacco budworm (on sorghum) - systemic evaluation: A 7.0 ml aliquot of the 150 ppm nematode test solution was applied to deliver the equivalent of 10.0 ppm soil concentration dose as a drench to 6 cm pots containing cotton and sorghum plants. The cotton plants were previously infested with cotton aphids about two days before treatment and greenbug one day before treatment. After holding the plants about three days, the plants were rated for aphid activity. Again at six days, the plants were rated for aphid activity and the cotton aphids and greenbugs were counted and mortality was assessed. Portions of the cotton and sorghum foliage were excised, placed in separate plastic containers, and infested with second instar larvae of tobacco budworm. The potted plants were dipped in sulfotepp to kill the remaining aphids and returned to the greenhouse for regrowth. Thirteen days after treatment, the remaining foliage was excised and fed to tobacco budworms. Mortality was assessed six days after infestation.

## Cc1cc(C=Nc2c(SC(F)(F)Cl)c(C#N)nn2-c2c(Cl)cc(C(F)(F)F)cc2Cl)cc(C)c1O [compound 80]
Heliothis virescens [1]
  control of tobacco budworm (TBW): 50-100%

## COc1cc(C=Nc2c(SC)c(C#N)nn2-c2c(Cl)cc(C(F)(F)F)cc2Cl)ccc1O [compound 110]
Spodoptera eridania [2]
  control of southern armyworm at thirteen days: 30-100%
Spodoptera eridania [3]
  control of southern armyworm at thirteen days (sorghum): 70-100%
Aphis gossypii
  control of cotton aphid after six days on cotton: 30-100%
Schizaphis graminum
  control of greenbug after six days on sorghum: 30-100%

## COc1cc(C=Nc2c(SC(F)(F)F)c(C#N)nn2-c2c(Cl)cc(C(F)(F)F)cc2Cl)ccc1OC(C)=O [compound 69]
Spodoptera eridania [2]
  control of southern armyworm at six days on cotton: 30-100%
Spodoptera eridania [3]
  control of southern armyworm after six days on sorghum: 30-100%
Heliothis virescens [1]
  control of tobacco budworm (TBW): 50-100%

## COc1cc(C=Nc2c(SC(F)(F)F)c(C#N)nn2-c2c(Cl)cc(C(F)(F)F)cc2Cl)cc([N+](=O)[O-])c1O [compound 74]
Schizaphis graminum
  control of greenbug after six days on sorghum: 30-100%

## CC(C)(C)c1cc(C=Nc2c(SC(F)(F)F)c(C#N)nn2-c2c(Cl)cc(C(F)(F)F)cc2Cl)cc(C(C)(C)C)c1O [compound 64]
Spodoptera eridania [2]
  control of southern armyworm at thirteen days: 30-100%

## CSc1c(C#N)nn(-c2c(Cl)cc(C(F)(F)F)cc2Cl)c1N=Cc1ccc(O)cc1 [compound 111]
Aphis gossypii
  control of cotton aphid after six days on cotton: 30-100%
Schizaphis graminum
  control of greenbug after six days on sorghum: 30-100%

## COc1ccc(C=Nc2c(S(=O)(=O)C(F)(F)F)c(C#N)nn2-c2c(Cl)cc(C(F)(F)F)cc2Cl)cc1O [compound 65]
Spodoptera eridania [2]
  control of southern armyworm at thirteen days: 30-100%
Spodoptera eridania [3]
  control of southern armyworm at thirteen days (sorghum): 70-100%

## N#Cc1nn(-c2c(Cl)cc(C(F)(F)F)cc2Cl)c(N=Cc2ccco2)c1SC(F)(F)F [compound 20]
Heliothis virescens [4]
  control of tobacco budworm after six days on sorghum: 100%
Schizaphis graminum
  control of greenbug after six days on sorghum: 30-100%

## COc1cc(C=Nc2c(SC(F)(F)F)c(C#N)nn2-c2c(Cl)cc(C(F)(F)F)cc2Cl)cc(Br)c1O [compound 42]
Heliothis virescens [1]
  control of tobacco budworm (TBW): 50-100%

## COc1cc(C=Nc2c(SC(F)(F)F)c(C#N)nn2-c2c(Cl)cc(C(F)(F)F)cc2Cl)ccc1OCc1ccccc1 [compound 120]
Spodoptera eridania [2]
  control of southern armyworm at six days on cotton: 30-100%

## N#Cc1nn(-c2c(Cl)cc(C(F)(F)F)cc2Cl)c(N=Cc2cc(C(F)(F)F)cc(C(F)(F)F)c2)c1SC(F)(F)F [compound 112]
Aphis gossypii
  control of cotton aphid after six days on cotton: 30-100%
Schizaphis graminum
  control of greenbug after six days on sorghum: 30-100%

## COc1cc(C=Nc2c(SC(F)(F)F)c(C#N)nn2-c2c(Cl)cc(C(F)(F)F)cc2Cl)cc(OC)c1O [compound 13, 1-(2,6-dichloro-4-trifluoromethylphenyl)-3-cyano-4-trifluoromethylsulfenyl-5-[(3,5-dimethoxy-4-hydroxyphenyl)methylideneimino]pyrazole]
Aphis gossypii
  control of cotton aphid after six days on cotton: 30-100%
Heliothis virescens [1]
  control of tobacco budworm (TBW): 50-100%

## N#Cc1cccc(C=Nc2c(SC(F)(F)F)c(C#N)nn2-c2c(Cl)cc(C(F)(F)F)cc2Cl)c1 [compound 116]
Heliothis virescens [1]
  control of tobacco budworm (TBW): 50-100%

## N#Cc1nn(-c2c(Cl)cc(C(F)(F)F)cc2Cl)c(N=Cc2ccc(O)cc2O)c1SC(F)(F)F [compound 17]
Aphis gossypii
  control of cotton aphid after six days on cotton: 30-100%
Heliothis virescens [4]
  control of tobacco budworm after six days on sorghum: 100%
Schizaphis graminum
  control of greenbug after six days on sorghum: 30-100%

## CCOc1cc(C=Nc2c(S(=O)(=O)C(F)(F)F)c(C#N)nn2-c2c(Cl)cc(C(F)(F)F)cc2Cl)ccc1O [compound 61]
Heliothis virescens [1]
  control of tobacco budworm (TBW): 50-100%

## CCCCCCCC(=O)Oc1ccc(C=Nc2c(SC(F)(F)F)c(C#N)nn2-c2c(Cl)cc(C(F)(F)F)cc2Cl)cc1OC [compound 121]
Spodoptera eridania [3]
  control of southern armyworm after six days on sorghum: 30-100%

## Cc1cc(C=Nc2c(S(=O)(=O)C(F)(F)F)c(C#N)nn2-c2c(Cl)cc(C(F)(F)F)cc2Cl)ccc1O [compound 66]
Spodoptera eridania [3]
  control of southern armyworm at thirteen days (sorghum): 70-100%

## COc1cc(O)c(C=Nc2c(S(=O)(=O)C(F)(F)F)c(C#N)nn2-c2c(Cl)cc(C(F)(F)F)cc2Cl)c(OC)c1 [compound 72]
Spodoptera eridania [3]
  control of southern armyworm after six days on sorghum: 30-100%

## COc1cc(C=Nc2c(SC(F)(F)F)c(C#N)nn2-c2c(Cl)cc(C(F)(F)F)cc2Cl)cc(O)c1OC [compound 59]
Heliothis virescens [1]
  control of tobacco budworm (TBW): 50-100%

## Cc1cc(C=Nc2c(SC(F)(F)F)c(C#N)nn2-c2c(Cl)cc(C(F)(F)F)cc2Cl)ccc1O [compound 19]
Aphis gossypii
  control of cotton aphid after six days on cotton: 30-100%
Heliothis virescens [4]
  control of tobacco budworm after six days on sorghum: 100%
Schizaphis graminum
  control of greenbug after six days on sorghum: 30-100%

## COc1ccc(C=Nc2c(SC(F)(F)Cl)c(C#N)nn2-c2c(Cl)cc(C(F)(F)F)cc2Cl)cc1O [compound 81]
Heliothis virescens [1]
  control of tobacco budworm (TBW): 50-100%

## COc1ccccc1C=Nc1c(SC(F)(F)F)c(C#N)nn1-c1c(Cl)cc(C(F)(F)F)cc1Cl [compound 113]
Spodoptera eridania [2]
  control of southern armyworm at six days on cotton: 30-100%

## CCN(CC)c1ccc(C=Nc2c(SC(F)(F)F)c(C#N)nn2-c2c(Cl)cc(C(F)(F)F)cc2Cl)c(O)c1 [compound 117]
Spodoptera eridania [3]
  control of southern armyworm at thirteen days (sorghum): 70-100%

## COc1cccc(C=Nc2c(SC(F)(F)F)c(C#N)nn2-c2c(Cl)cc(C(F)(F)F)cc2Cl)c1O [compound 50]
Heliothis virescens [1]
  control of tobacco budworm (TBW): 50-100%

## N#Cc1nn(-c2c(Cl)cc(C(F)(F)F)cc2Cl)c(N=Cc2ccc(O)c(Br)c2)c1SC(F)(F)F [compound 100]
Spodoptera eridania [3]
  control of southern armyworm after six days on sorghum: 30-100%

## N#Cc1nn(-c2c(Cl)cc(C(F)(F)F)cc2Cl)c(N=Cc2ccc(O)cc2)c1SC(F)(F)F [compound 4, 1-(2,6-dichloro-4-trifluoromethylphenyl]-3-cyano-4-trifluoromethylsulfenyl-5-[(4-hydroxyphenyl]methylideneimino]pyrazole]
Schizaphis graminum
  control of greenbug after six days on sorghum: 30-100%

## N#Cc1nn(-c2c(Cl)cc(C(F)(F)F)cc2Cl)c(N=Cc2ncc[nH]2)c1SC(F)(F)F [compound 115]
Spodoptera eridania [3]
  control of southern armyworm after six days on sorghum: 30-100%

## N#Cc1nn(-c2c(Cl)cc(C(F)(F)F)cc2Cl)c(N=Cc2cc(O)c(O)c(Br)c2)c1SC(F)(F)F [compound 93]
Schizaphis graminum
  control of greenbug after six days on sorghum: 30-100%

## COc1cc(C=Nc2c(SC(F)(F)F)c(C#N)nn2-c2ncc(C(F)(F)F)cc2Cl)ccc1O [compound 87]
Schizaphis graminum
  control of greenbug after six days on sorghum: 30-100%

## COc1ccc(C=Nc2c(SC(F)(F)F)c(C#N)nn2-c2c(Cl)cc(C(F)(F)F)cc2Cl)cc1 [compound 21]
Schizaphis graminum
  control of greenbug after six days on sorghum: 30-100%

## N#Cc1nn(-c2c(Cl)cc(C(F)(F)F)cc2Cl)c(N=Cc2cc[n+]([O-])cc2)c1S(=O)(=O)C(F)(F)F [compound 68]
Spodoptera eridania [2]
  control of southern armyworm at thirteen days: 30-100%
